Assay results from ChEMBL document CHEMBL4325920, “Discovery of Clinical Candidate BMS-823778 as an Inhibitor of Human 11β-Hydroxysteroid Dehydrogenase Type 1 (11β-HSD-1)” (ACS Med Chem Lett, 2018).

Assays:
[1] = biological target: 11-beta-hydroxysteroid dehydrogenase 1 (Mus musculus, UniProt P50172); experiment: Inhibition of recombinant mouse 11beta-HSD1 expressed in HEK293 cell microsomes using [3H]cortisone as substrate after 4 hrs by homogeneous immuno-radiometric scintillation proximity assay
[2] = biological target: T1, Nuclear receptor subfamily 1 group I member 2 (Homo sapiens, UniProt O75469); experiment: Activation of PXR (unknown origin); assay type: ADME
T1 sequence (O75469 whole entry): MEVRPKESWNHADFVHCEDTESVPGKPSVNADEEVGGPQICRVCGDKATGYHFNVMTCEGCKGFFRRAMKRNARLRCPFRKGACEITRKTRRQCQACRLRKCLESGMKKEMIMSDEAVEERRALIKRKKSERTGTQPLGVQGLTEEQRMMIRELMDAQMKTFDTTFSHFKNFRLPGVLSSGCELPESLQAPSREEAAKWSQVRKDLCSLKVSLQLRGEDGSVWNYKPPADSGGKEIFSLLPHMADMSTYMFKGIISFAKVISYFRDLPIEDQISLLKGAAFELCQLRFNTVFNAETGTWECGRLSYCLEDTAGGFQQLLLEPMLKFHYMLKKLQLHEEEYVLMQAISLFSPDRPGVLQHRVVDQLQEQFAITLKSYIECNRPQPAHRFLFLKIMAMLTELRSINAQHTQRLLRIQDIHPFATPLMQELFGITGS

11-beta-hydroxysteroid dehydrogenase 1, sequence (P50172 whole entry): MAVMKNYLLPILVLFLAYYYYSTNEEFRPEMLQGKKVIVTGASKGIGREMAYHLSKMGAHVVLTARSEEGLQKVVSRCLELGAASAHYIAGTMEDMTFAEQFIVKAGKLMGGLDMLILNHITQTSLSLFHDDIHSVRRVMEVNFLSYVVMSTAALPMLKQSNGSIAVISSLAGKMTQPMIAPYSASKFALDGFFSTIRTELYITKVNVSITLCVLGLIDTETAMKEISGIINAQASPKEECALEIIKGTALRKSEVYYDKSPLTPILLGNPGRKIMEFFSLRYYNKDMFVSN

IC50 [1] [µM] | EC50 [2] [µM] | Compound
3.8 | 25 | OCc1cccn2c(C3(c4ccc(Cl)cc4)CC3)nnc12
> 10 | 3.6 | CC(C)(O)CCc1cccn2c(C3(c4ccc(Cl)cc4)CC3)nnc12
